Reference: PubChem BioAssay (NCI)
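A five-concentration, 48-hour dose response in 96-well plates underlies each endpoint, interpolated linearly between surrounding concentrations. At the GI50, growth is halved. TGI: total growth inhibition.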

How the values were obtained:
Test in all cases: DTP human tumour cell line panel, 48 h
[1] = system: EKVX NSCLC
[2] = system: SK-MEL-2 melanoma
[3] = system: HOP-62 NSCLC
[4] = system: 786-0 renal
[5] = system: CAKI-1 renal
[6] = system: UO-31 renal
[7] = system: MDA-MB-231 breast
[8] = system: NCI-H226 lung
[9] = system: OVCAR-4 ovarian
[10] = system: T-47D breast
[11] = system: MDA-MB-435

Structure (SMILES)	TGI [1] [µM]	TGI [2] [µM]	TGI [3] [µM]	TGI [4] [µM]	TGI [5] [µM]	TGI [6] [µM]	TGI [7] [µM]	TGI [8] [µM]	TGI [9] [µM]	TGI [10] [µM]	TGI [11] [µM]	GI50 [1] [µM]	GI50 [2] [µM]	GI50 [3] [µM]	GI50 [5] [µM]	GI50 [6] [µM]	GI50 [7] [µM]	GI50 [11] [µM]	GI50 [8] [µM]	GI50 [10] [µM]
CNC(=O)N(C)C(=O)c1ccccc1C(=O)N(C)C(=O)NC	> 10	> 10	> 10	> 10	> 10	> 10	> 10	> 10	> 10	> 10	–	–	–	–	–	–	–	–	–	–
CNc1nc(OC)c2c(n1)[n+](C)cn2C	> 100	> 100	> 100	> 100	> 100	> 100	> 100	> 100	–	> 100	> 100	–	–	–	–	–	–	–	–	–
CCOC(=O)N/N=C(/N)Cc1ccc(Cl)cc1	> 100	> 100	> 100	> 100	–	> 100	> 100	–	> 100	–	> 100	–	–	–	–	–	–	–	–	–
COc1ccc(/[N+]([O-])=C/c2ccccc2OC(=S)S)cc1	> 100	65.7	–	65.5	> 100	> 100	> 100	> 100	> 100	> 100	55.7	–	–	–	–	–	–	–	–	–
NS(=O)(=O)c1cc2c(cc1Cl)NC(C(=O)NNC(=O)c1ccncc1)=NS2(=O)=O	> 100	> 100	> 100	> 100	> 100	> 100	–	> 100	> 100	–	–	–	–	–	–	–	–	–	–	–
CCCCC(C)(C/C=C/[C@@H]1[C@@H](C(O)CCCCCC(=O)OC)C(=O)C[C@H]1O[Si](C)(C)C(C)(C)C)O[Si](C)(C)C (stereo not given in full)	> 100	> 100	> 100	> 100	78.1	> 100	> 100	> 100	> 100	–	> 100	–	–	–	–	–	–	–	–	–
O=C(Nc1nc2ccc([N+](=O)[O-])cc2s1)c1cc([N+](=O)[O-])ccc1Cl	8.55	–	10.3	11.7	24.3	–	21.3	7.24	> 100	> 100	16.4	–	–	–	–	–	–	–	–	–
Cc1cccc2c1Oc1ncccc1C2NC(=O)CN(C)C (stereo not given)	> 10	> 10	–	> 10	–	> 10	–	> 10	> 10	–	> 10	–	–	–	–	–	–	–	–	–
Cc1cc(N(CCCl)CCCl)ccc1/C=N\NC(=O)c1cccnc1	> 100	59	> 100	–	45	82.7	> 100	2.8	–	50.2	> 100	48.8	27.3	19.5	5.46	21.6	29.3	24.6	1.11	6.41
CCOC(=O)Oc1ccc2[nH]c3c(C)cc(N)c(C)c3c2c1	> 100	> 100	> 100	> 100	> 100	> 100	–	> 100	> 100	–	–	–	–	–	–	–	–	–	–	–
CC(=O)Oc1c(OC(C)C)cc(=O)n2ccsc12	> 100	> 100	> 100	> 100	> 100	> 100	> 100	> 100	> 100	–	31	–	–	–	–	–	–	–	–	–
CCOC(=O)C1=C(O)c2c(OC)ccc(OC)c2C(=O)C1=O	> 100	> 100	> 100	> 100	> 100	> 100	–	> 100	> 100	–	–	–	–	–	–	–	–	–	–	–
O=[N+]([O-])c1cccc2c1[nH]c1c(-c3ccccc3)nccc12	> 29.5	3	5.04	–	–	4.22	–	5.33	> 33.2	–	–	–	–	–	–	–	–	–	–	–
CCOC(=O)c1sc2nc(SC)nc3c2c1NCN3c1ccccc1Cl	–	> 100	> 100	> 100	> 100	> 100	> 100	> 100	> 100	60.3	> 100	–	–	–	–	–	–	–	–	–
O=C1C[C@@]23CCC4(CC2=CCC[C@H]3O1)OCCO4	> 100	> 100	> 100	> 100	> 100	–	> 100	> 100	> 100	> 100	> 100	–	–	–	–	–	–	–	–	–
CC(C)[C@H](NC(=O)OCc1ccccc1)C(=O)N[C@H](/C=C/C(=O)OC(C)(C)C)CO	> 100	> 100	> 100	> 100	> 100	–	> 100	> 100	> 100	> 100	> 100	–	–	–	–	–	–	–	–	–
O=C(NCc1ccc(Cl)c(Cl)c1)c1nc2ccccc2nc1NCc1ccc(Cl)c(Cl)c1	> 100	> 100	> 100	> 100	> 100	> 100	> 100	> 100	–	> 100	> 100	–	–	–	–	–	–	–	–	–
C/C(=C\CNc1ncnc2c1ncn2CCC#N)CO	> 100	–	> 100	> 100	> 100	> 100	> 100	> 100	> 100	> 100	> 100	–	–	–	–	–	–	–	–	–
Nc1nc2c(c(-c3ccc(F)cc3)n1)COC/C2=C\c1ccc(F)cc1	> 100	> 100	> 100	–	> 100	50	> 100	> 100	> 100	–	> 100	–	–	–	–	–	–	–	–	–
CC(=O)OCc1cc2c(s1)C(=O)c1sccc1C2=O	0.36	0.249	–	1.84	3.24	0.391	0.692	1.24	0.334	0.882	0.0322	–	–	–	–	–	–	–	–	–
CCCCCNC(=O)OC1CCn2c1nc1c2C(=O)C(C)=C(N2CC2)C1=O (stereo not given)	–	3.7	–	1.75	2.9	3.87	5.31	4.26	4.98	7.16	3.13	–	–	–	–	–	–	–	–	–
COc1ccc(-c2cc(-c3ccc(Nc4ccnc5cc(C(F)(F)F)ccc45)cc3)nc(N)c2C#N)c2ccccc12	> 100	> 100	> 100	> 100	> 100	> 100	> 100	–	> 100	> 100	> 100	–	–	–	–	–	–	–	–	–
